# Legend:
# [1] = system: BACE1; assay: BACE cleavage of the full length APP; type: biochemical; settings: result in words
# [2] = target: T1, sAPPβ (Homo sapiens, UniProt P05067); assay: Biacore S51 binding to immobilized biotinylated sAPPβ; settings: Biacore S51, SA-coated sensor chip
# T1 construct: Biotinylated APP and biotinylated sAPPβ were immobilized to a SA-coated sensor chip
# Description: (§1) The compounds of formula (I) are believed to inhibit APP cleavage function by binding APP. The binding of the compound of Example 1 to APP was assayed by BiacoreS51. Biotinylated APP and biotinylated sAPPβ were immobilized to a SA-coated sensor chip. A titration of Example 1 was injected and the binding response for each concentration of Example 1 was obtained for both proteins. FIG. 5 is a graph of response units for […] (◯) or the BACE 1 inhibitor Statine-Val ( ? ) binding to APP.
# [3] = target: gamma-secretase (Homo sapiens, UniProt P05067); assay: Gamma-secretase cleavage of CTFβ substrate (HeLa cell membrane extract); type: biochemical; settings: Aβ40 detection with 6E-10/G2-10, read-out: CTFβ CLEAVAGE AT POSITION 40
# Chain of gamma-secretase (P05067 whole entry): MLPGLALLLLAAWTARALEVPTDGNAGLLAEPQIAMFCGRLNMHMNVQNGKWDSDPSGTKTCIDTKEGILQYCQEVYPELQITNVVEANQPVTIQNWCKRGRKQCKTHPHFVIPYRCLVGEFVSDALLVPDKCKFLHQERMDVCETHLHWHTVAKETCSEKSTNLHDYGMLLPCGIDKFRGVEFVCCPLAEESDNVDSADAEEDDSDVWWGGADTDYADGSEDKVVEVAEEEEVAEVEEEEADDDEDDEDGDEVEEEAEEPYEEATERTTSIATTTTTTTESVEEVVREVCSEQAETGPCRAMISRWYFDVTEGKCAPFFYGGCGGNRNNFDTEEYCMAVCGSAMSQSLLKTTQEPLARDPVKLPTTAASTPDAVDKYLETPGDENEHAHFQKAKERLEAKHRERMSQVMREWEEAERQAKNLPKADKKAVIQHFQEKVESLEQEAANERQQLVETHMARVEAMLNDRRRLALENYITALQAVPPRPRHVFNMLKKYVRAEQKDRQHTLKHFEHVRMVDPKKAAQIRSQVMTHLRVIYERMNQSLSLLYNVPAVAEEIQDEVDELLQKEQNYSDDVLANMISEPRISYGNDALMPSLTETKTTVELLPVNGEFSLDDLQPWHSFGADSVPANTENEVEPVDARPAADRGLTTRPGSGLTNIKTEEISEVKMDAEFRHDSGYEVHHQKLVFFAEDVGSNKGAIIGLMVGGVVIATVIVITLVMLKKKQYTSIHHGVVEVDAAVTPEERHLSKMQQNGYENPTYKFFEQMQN
# Description: Accordingly, Examples 1-4 were tested for their ability to inhibit gamma-secretase cleavage of both a full-length CTFβ substrate, as described in Li, 2000, Proc. Natl Acad Sci. 97:6138-6143. The assays were carried out as follows:
# Inhibition of CTFβ Cleavage
# • 10 μL 10× protease inhibitor cocktail (Roche, cat # 1836153) • 25 μL 4× Buffer (50 mM PIPES pH7.0, 150 mM KCl, 5 mM MgCl2, 5 mM CaCl2) • 2 μL 10% CHAPSO • 5 μL HeLa cell membrane extract characterized for gamma-secretase activity • 7 μL 25 μM bacterially expressed CTFβ • 51 μL water • 1 μL compound in DMSO The reactions were incubated at 37° C. for 150 min and quenched with 25 μL 5× RIPA buffer (750mM NaCl, 5% NP-40, 2.5% DOC, 0.5% SDS, 250 mM Tris H8.0). Detection:
# Gamma-secretase cleavage of the CTFβ substrate was assessed by incubating 50 μL of the reaction with 25 μL of 4 μg/mL biotinylated antibody 6E-10 which is specific for the N-terminal region of Aβ, and 25 μL of 1.5 μg/mL of a ruthinylated antibody G2-10, which is specific to the C-terminal region of Aβ40. The C-terminal region is present only after gamma secretase cleavage of Aβ. The antibodies were allowed to bind overnight at room temperature. The following day, 25 μL of 80 μg/mL streptavidin-coated Dynabeads (M-280) were added to each reaction, allowed to bind for 30 minutes, and quenched with 275 μL IGEN assay buffer. Quantification of the gamma-secretase cleavage products was carried out using an Origen Analyzer.
# [4] = target: APP (Homo sapiens, UniProt P05067); assay: Biacore S51 binding to immobilized biotinylated APP; settings: Biacore S51, SA-coated sensor chip
# Chain of APP (P05067 18-770): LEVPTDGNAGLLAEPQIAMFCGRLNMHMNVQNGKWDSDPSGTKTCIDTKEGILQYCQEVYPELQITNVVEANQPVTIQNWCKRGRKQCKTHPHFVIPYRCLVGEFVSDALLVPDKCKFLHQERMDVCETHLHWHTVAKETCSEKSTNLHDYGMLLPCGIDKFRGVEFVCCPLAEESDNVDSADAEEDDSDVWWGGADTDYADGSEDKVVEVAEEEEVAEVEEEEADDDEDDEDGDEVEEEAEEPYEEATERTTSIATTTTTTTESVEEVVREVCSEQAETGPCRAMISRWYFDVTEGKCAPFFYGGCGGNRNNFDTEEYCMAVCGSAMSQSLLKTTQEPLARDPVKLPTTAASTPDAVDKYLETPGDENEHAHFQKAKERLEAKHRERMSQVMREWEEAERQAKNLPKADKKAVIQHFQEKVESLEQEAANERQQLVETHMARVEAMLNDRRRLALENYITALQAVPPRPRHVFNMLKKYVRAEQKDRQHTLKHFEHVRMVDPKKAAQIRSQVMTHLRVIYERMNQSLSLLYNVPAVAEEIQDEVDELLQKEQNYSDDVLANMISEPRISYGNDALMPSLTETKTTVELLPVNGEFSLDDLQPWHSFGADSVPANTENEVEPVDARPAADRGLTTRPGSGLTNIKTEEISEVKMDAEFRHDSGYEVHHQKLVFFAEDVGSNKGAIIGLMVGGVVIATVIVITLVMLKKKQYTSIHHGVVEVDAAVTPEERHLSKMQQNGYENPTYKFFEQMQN
# Description: as §1
# [5] = system: H4 neuroglioma cells expressing CTF99; assay: Secreted Aβ42 and Aβ40 in H4 neuroglioma cells expressing CTF99 (ECL); type: cell-based; settings: 20 h treatment, conditioned media, FIG. 4
# Description: The compound of Example 1 was titrated into H4 neuroglioma cells expressing CTF99. The cells were treated with the compound of Example 1 for 20 h and conditioned media was harvested.
# [6] = system: APP variant; assay: Antibody-masking ALPHA assay on biotinylated APP variant (Examples 5A/5B); type: binding; settings: antibody to C-terminal region of Aβ (5A) and LN27 to N-terminal region of APP (5B); pH 4.5, 37° C., 1 hour
# Description: A biotinylated APP variant (400 nM) was combined with Examples 1-3 under assay conditions (50 mM sodium acetate, pH 4.5; 1x Protease Inhibitor cocktail (Roche cat # 1836153); 100 μg/mL bovine serum albumin, 0.2% CHAPS). Incubations with vehicle, including DMSO (compound diluent), and incubations lacking the APP variant were carried out as controls for each experiment. Each mixture was incubated at 37° C. for 1 hour.
# Thereafter, 70 μL of each incubation mixture was placed in its own well of a 96-well plate. 5 μL of 1 M Tris-Cl, pH 8.0 was added to each well to neutralize any binding reaction.
# In Example 5A, a mixture of ALPHA beads was prepared from
# (1) 20 μg/mL streptavidin donor beads;
# (2) 20 μg/mL Protein A acceptor beads (from AlphaScreen General IgG (Protein A) Detection Kit Perkin Elmer Life Sciences; 10,000 pts (Part Number 6760617M)), containing 150 ng/mL of a rabbit polyclonal antibody directed against the C-terminal region of Aβ; and
# (3) 0.1 % bovine serum albumin.
# The beads were combined in a phosphate buffered saline.
# In Example 5B, a mixture of ALPHA beads was prepared from […]
# The following day, the plates were read using ALPHAQUEST, to measure the degree of binding of the antibodies. […]
# [7] = target: BACE 1 (Homo sapiens, UniProt P05067); assay: Western blot of BACE 1 cleavage of APP variant; type: biochemical; settings: bacterially expressed APP variant, BACE 1 protein, 1 h at 37° C.; read-out: IC50, inhibition of BACE cleavage of APP (densitometric quantitation of Western blot)
# Chain of BACE 1 (P05067 whole entry K670N/M671F/D672E/A673V, form open): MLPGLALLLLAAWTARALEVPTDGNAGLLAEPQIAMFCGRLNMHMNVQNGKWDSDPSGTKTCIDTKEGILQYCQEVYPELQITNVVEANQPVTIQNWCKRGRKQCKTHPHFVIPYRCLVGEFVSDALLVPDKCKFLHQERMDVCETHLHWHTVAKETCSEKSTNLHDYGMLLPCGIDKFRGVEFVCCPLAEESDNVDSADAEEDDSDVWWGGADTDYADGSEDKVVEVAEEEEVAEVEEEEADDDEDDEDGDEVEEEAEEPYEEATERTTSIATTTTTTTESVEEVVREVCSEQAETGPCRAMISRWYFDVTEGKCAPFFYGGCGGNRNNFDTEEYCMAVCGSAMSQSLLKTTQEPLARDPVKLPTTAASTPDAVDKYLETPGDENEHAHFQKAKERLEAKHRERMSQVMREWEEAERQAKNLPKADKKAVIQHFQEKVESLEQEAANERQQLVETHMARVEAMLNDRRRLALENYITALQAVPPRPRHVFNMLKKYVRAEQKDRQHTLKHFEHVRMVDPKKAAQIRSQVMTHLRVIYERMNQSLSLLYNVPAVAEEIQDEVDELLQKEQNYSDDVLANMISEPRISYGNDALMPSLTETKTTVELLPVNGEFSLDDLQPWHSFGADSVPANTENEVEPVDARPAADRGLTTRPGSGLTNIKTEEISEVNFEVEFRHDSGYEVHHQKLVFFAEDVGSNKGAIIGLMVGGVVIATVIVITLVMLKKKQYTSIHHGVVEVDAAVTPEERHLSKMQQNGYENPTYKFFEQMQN
# Description: A bacterially expressed APP variant containing an enhanced BACE cleavage sequence was incubated with Example 2 and BACE 1 protein for 1 h at 37° C. to conduct a Western blot analysis. The reaction was run on a gel and blotted. The BACE-specific cleavage product was detected using an antibody specifically recognizing the N-terminal product arising after BACE cleavage.
# FIG. 2(A) depicts the Western blot.
# [8] = system: BACE2; assay: BACE2 cleavage of EV amyloid / Aβ (mass spectrometric analysis); type: biochemical; settings: 100 μM; result in words
# Description: The effect of inhibition of BACE 2 cleavage of EV amyloid was assayed using a protocol described in Shi et al, 2003, J. Biol. Chem., 278:21286-21294. The results of assaying Examples 1-4 at 100 μM are shown below: […]
# T1 sequence (P05067 18-671 limits assumed): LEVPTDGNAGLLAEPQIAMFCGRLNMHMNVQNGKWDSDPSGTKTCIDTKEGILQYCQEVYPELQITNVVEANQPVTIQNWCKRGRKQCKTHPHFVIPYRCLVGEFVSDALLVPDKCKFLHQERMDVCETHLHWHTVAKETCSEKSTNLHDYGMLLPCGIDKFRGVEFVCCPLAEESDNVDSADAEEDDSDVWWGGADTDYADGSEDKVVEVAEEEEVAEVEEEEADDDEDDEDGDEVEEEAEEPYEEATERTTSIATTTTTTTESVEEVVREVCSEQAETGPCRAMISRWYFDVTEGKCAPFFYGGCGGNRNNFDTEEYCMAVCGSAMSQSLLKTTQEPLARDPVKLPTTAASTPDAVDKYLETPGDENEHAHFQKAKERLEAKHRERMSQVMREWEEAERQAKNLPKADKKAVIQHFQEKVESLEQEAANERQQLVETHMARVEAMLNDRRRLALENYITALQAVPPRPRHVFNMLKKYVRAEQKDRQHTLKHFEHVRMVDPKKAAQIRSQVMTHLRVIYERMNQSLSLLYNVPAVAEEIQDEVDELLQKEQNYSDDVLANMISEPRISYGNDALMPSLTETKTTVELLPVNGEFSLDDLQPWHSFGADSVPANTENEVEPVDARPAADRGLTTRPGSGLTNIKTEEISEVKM
SMILES,inhibition of BACE (BACE1) cleavage/processing of full length APP [1],binding to sAPPβ [2],IC50 [3] [µM],binding to APP [4],production of Aβ42 relative to Aβ40 [5],interaction with the APP variant near the antibody binding sites [6],IC50 [7] [µM],effect on BACE2 cleavage at positions 19 and 20 [8]
"O=C(O)COc1cc2c(cc1CCCOc1ccccc1)OC(CCc1ccccc1)C2 (centres unmarked) [Example 1, {[6-(3-phenoxypropyl)-2-(2-phenylethyl)-2,3-dihydro-1-benzofuran-5-yl]oxy} acetic acid]",inhibit both BACE processing of APP,does not bind sAPPβ,29,binds APP,decrease the production of Aβ42 relative to the production of Aβ40,"interacted with the APP variant within its Aβ domain, proximal to the C-terminal binding site",,
"O=C(O)COc1cc2c(cc1CCCOc1ccccc1Cl)OC(CCc1ccccc1)C2 (centres unmarked) [Example 2, {[6-[3-(2chlorophenoxy)propyl)-2-(2-phenylethyl)-2,3-dihydro-1-benzofuran-5-yl]oxy} acetic]",inhibit both BACE processing of APP,,8,,,"interacted with the APP variant within its Aβ domain, proximal to the C-terminal binding site",11,substantially enhanced cleavage at positions 19 and 20

# Source: patent US20070202547A1, “Methods For Detecting Substances Which Bind To The Amyloid Precursor Protein Or Beta Amyloid Fragments, And Binding Compounds” (priority 2004, published 2007)
